Patent publication US7651995B2, “Absorption enhancers such as e.g. BHT, BHA or propyl gallate” (Axcess Limited, priority 2003, dated 2010)

System: Caco-2 cells
Test: Trans-epithelial electrical resistance (TEER) across Caco-2 cell monolayer
Assay type: cell-based, human
Details: Caco-2 monolayer; for TEER 15 minutes after addition: fall >50% of initial value considered significant; for TEER before addition: four replicates
Protocol: Caco-2 cells (a cell line derived from human colon adenocarcinoma) are grown as a confluent mono-layer on the surface of a porous membrane (pore size 0.4 μm, surface area 0.33 cm^2) separating two aqueous compartments, the upper compartment filled with 200 μl of culture medium, and the lower compartment containing 600 μl of the culture medium. Electrical resistance across the mono-layer is measured using an epithelial voltohmeter connected to electrodes inserted into the medium on either side of the mono-layer in the upper and lower compartments. This trans-epithelial electrical resistance (TEER) is measured immediately before, and fifteen minutes after the addition of aromatic alcohols to the upper compartment (typical results are given in the table below). Fall in TEER is considered indicative of the increased flow of materials (including bulk fluid phase) across the cell monolayer. Falls of greater than 50% of the initial value are considered significant. Reducing the concentration tends to reduce the effect observed.

[1] = agent 0.3 mg/ml in upper compartment
[2] = baseline immediately before addition of agent at 0.3 mg/ml

With Cc1cc(C(C)(C)C)c(O)c(C(C)(C)C)c1 [Butylated hydroxy toluene, butylated hydroxy toluene] the “TEER 15 minutes after addition” value [1] was 194 ohm · cm^2 and the TEER before addition [2] was 633 ohm · cm^2.
For COc1ccc(O)c(C(C)(C)C)c1 [Butylated hydroxy anisole, butylated hydroxy anisole], the “TEER 15 minutes after addition” value [1] was 183 ohm · cm^2 and the TEER before addition [2] was 564 ohm · cm^2.
For CCCOC(=O)c1cc(O)c(O)c(O)c1 [Propyl gallate, propyl gallate], the “TEER 15 minutes after addition” value (agent 0.2 mg/ml in upper compartment) was 629 ohm · cm^2, the “TEER 15 minutes after addition” value (agent 13 mg/ml in upper compartment) was −0.6 ohm · cm^2 and the TEER before addition (baseline immediately before addition of agent at 0.2 mg/ml) was 667 ohm · cm^2. It also gave a TEER before addition (baseline immediately before addition of agent at 13 mg/ml) of 494 ohm · cm^2.
